# Experimental data as given in patent US20230272012A1, “PEPTIDES AND METHODS OF USE” (REALTA LIFE SCIENCES, INC., priority 2020, published 2023).
# Entries after “also recorded” stand apart in the source; their conditions may differ. Bridge positions count the residues as written; N and C are the ends. Square brackets hold non-standard residues; d marks the D form. Ends that are not written are not given here. Peptide text beside a SMILES is read from it. R8 = C=CCCCCCC[C@@](C)(N)C(=O)O; S5 = C=CCCC[C@](C)(N)C(=O)O; Sar = CNCC(=O)O
# Tests used:
# [1] = ABO incompatibility hemolytic assay of complement activity (CH50-type); type: cell-based, human; conditions: human; peptide 0.8 mg/ml (~0.5 mM); read-out: decrease of ABO hemolysis compared to PA-I8Sar
# Summary of the method: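 Type AB human erythrocytes (5.0×10^7) incubated with 15% (final) type O human serum and 0.5 mM peptide in GVBS^++, 1 h at 37 °C. Hemolysis read as supernatant absorbance at 412 nm, expressed as percent of the serum-plus-RBC positive control; means of three independent experiments ±SEM.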
# complement activity = experiment: Hemolytic assay of plasma after IV infusion into rats; type: in vivo, rat; conditions: IV in Wistar rats; early time points at the highest dose
# Description: (§1) Male Wistar rats with indwelling jugular catheters were administered PA-0117, -0127, -0130, and -0133 with groups of three animals receiving 20, 200 and 400 mg/kg of the compound as a single, bolus, IV infusion. A control group of rats received an infusion of saline IV. At various time points after infusion (0.5, 2, 5, 20, 60, 120, 240, 480, 1440 minute) an aliquot of blood was drawn and plasma isolated and frozen at −70° C. pending analysis. Animals were sacrificed after the terminal blood draw and a gross necropsy performed.
# (§2) PA-0117 could not be analyzed as no functional complement activity was obtained from the plasma samples. […] PA-0117 was analyzed in a C1q target acquisition assay (C1q binding assay) as described in Example 1 (FIG. 9). […] PA-0127 and -0130 levels were determined by coating the plate with the plasma samples and directly detecting the peptides by rabbit antibody raised against PA-0020 (peptide sequence […]; SEQ ID NO: 57) (FIGS. 10B and 11B). […] PA-0133 could not be detected by the available antibodies.
# PD-1 = PD-1 (Homo sapiens, UniProt Q15116); experiment: Peptide binding to immobilized PD-1, ELISA plate-based assay; conditions: increasing amounts of peptide
# Chain of PD-1 (Q15116 25-288): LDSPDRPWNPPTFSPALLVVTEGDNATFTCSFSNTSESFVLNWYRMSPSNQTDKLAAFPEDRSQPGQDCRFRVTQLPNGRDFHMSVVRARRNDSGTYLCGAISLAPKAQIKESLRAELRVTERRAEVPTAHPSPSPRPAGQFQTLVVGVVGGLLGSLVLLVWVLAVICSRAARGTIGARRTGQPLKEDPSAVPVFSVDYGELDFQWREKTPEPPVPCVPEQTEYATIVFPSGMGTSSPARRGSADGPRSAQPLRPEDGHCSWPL
# Description: (§3) RLS-0117 was allowed to bind to immobilized CTLA-4, PD-1, PD-L1 on the surface of the plate. Bound C1q served as a positive and control for peptide binding. Increasing amounts of peptides were added to the plates followed by a rabbit polyclonal antibody that recognizes the peptides and then a secondary anti-rabbit antibody conjugated with HRP. The plate was then developed by addition of TMB as the substrate for the colorimetric assay.
# (§4) The inventors further evaluated if RLS-0117 could bind to the well characterized checkpoint inhibitor, cytotoxic T-lymphocyte associated protein 4 (CTLA-4 aka CD152). […] Therefore, the pharmaceutical inhibition of CTLA-4 or its ligand has been considered a promising strategy by many cancer researchers and is a therapeutic target in cancer immunotherapy. To ascertain the ability of RLS-0117 to bind CTLA-4, a binding assay was performed in which these proteins were coated on a microtiter plate followed by incubation with increasing amounts of either […]. Plates coated with PD-1, PD-L1 and C1q served as a positive control […].
# CTLA-4 = target: T1, CTLA-4 (Homo sapiens, UniProt P16410); experiment: Peptide binding to immobilized CTLA-4, ELISA plate-based assay; conditions: increasing amounts of peptide
# T1 sequence (P16410 36-223): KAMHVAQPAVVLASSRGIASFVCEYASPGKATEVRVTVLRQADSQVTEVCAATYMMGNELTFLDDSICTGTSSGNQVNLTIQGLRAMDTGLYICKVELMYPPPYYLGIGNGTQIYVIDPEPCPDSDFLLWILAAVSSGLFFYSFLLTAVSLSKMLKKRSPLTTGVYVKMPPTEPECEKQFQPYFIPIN
# Description: as §3, §4
# [2] = type: in vivo, rat; conditions: IV in Wistar rats, 20, 200, 400 mg/kg; 0.5-1440 minute
# Description: as §1, §2
# PA-0117: The hemolysis assay results were not useable (few pre-bleeds had any activity, and only a few other random samples had any complement activity). The PK assay for PA-0117 was performed by sandwich ELISA (FIG. 9). PA-0127: The results of the hemolysis assay are discussed herein (see also FIG. 10A). […] PA-0130: The results of the hemolysis assay are discussed herein (see also FIG. 11A). […] PA-0133: The results of the hemolysis assay are discussed herein (FIG. 12).
# PD-L1 = PD-L1 (Homo sapiens, UniProt Q9NZQ7); experiment: Peptide binding to immobilized PD-L1, ELISA plate-based assay; conditions: increasing amounts of peptide
# Chain of PD-L1 (Q9NZQ7 19-290): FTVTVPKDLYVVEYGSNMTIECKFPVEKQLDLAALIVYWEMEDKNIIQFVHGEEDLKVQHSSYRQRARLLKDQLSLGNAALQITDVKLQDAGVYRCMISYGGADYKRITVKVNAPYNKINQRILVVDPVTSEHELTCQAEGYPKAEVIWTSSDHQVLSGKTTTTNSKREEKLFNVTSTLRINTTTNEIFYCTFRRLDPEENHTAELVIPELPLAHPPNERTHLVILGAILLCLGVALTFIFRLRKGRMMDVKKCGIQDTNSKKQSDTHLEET
# Description: as §3, §4
# human neutrophils = experiment: NETosis assay (free DNA, PicoGreen); type: cell-based; conditions: peptide 2 mM; neutrophils stimulated with PMA and H2O2
# Description: Free DNA as a marker for NET formation was measured by PicoGreen as previously described. Briefly, 2.0×10^6 human neutrophils in 96-well plates were stimulated with 12 nM PMA and 0.05% H2O2 in RPMI with or without the indicated peptide variants (2 mM) for 2.5 hr in a 37° C. humified incubator supplemented with 5% CO2, allowing NETosis to occur. Neutrophils in RPMI alone served as a negative control. Fifty units of […] (Fisher) were added to each well to allow for digestion of released extracellular DNA for 10 min at 37° C. The preparation was then aliquoted into an adjacent well and mixed 1:1 with prepared PICO green reagent (Fisher). The fluorescence was then quantified on a BioTek microplate reader at excitation 485 nm/emission 528 nm.
compound,measurement,setting,value
"CC[C@H](C)[C@H](N)C(=O)N[C@]1(C)CCCCCCC=CCCC[C@@](C)(C(=O)N[C@@H](CS)C(=O)N[C@@H](CCC(N)=O)C(=O)N[C@@H](CCC(=O)O)C(=O)N[C@@H](CCCNC(=N)N)C(=O)N[C@@H](C)C(=O)N[C@@H](C)C(=O)O)NC(=O)CN(C)C(=O)[C@@H]2CCCN2C(=O)[C@H](CCC(=O)O)NC(=O)[C@H](CC(C)C)NC(=O)[C@H]([C@@H](C)CC)NC(=O)[C@H](CC(C)C)NC1=O [PA-0115, IR8LILEP(Sar)S5CQERAA] (H-I[R8]LILEP[Sar][S5]CQERAA-OH; staple 2-9)",decrease in ABO hemolysis compared to reference peptide at 1 h,[1],30%
IALILEP(Sar)dCCQERRA (IALILEP[Sar][dC]CQERRA; cysteine pairing not given here) [RLS-0127*],inhibition of complement activity in the hemolytic assay of rat plasma,complement activity,inhibit complement activation
IALILEP(Sar)CCQERA (IALILEP[Sar]CCQERA; cysteine pairing not given here) [RLS-0133*],inhibition of complement activity in the hemolytic assay of rat plasma,complement activity,inhibit complement activation
"CC[C@H](C)[C@H](N)C(=O)N[C@@H](C)C(=O)N[C@@H](CC(C)C)C(=O)N[C@H](C(=O)N[C@@H](CC(C)C)C(=O)N[C@@H](CCC(=O)O)C(=O)N1CCC[C@H]1C(=O)N(C)CC(=O)N[C@@H](CS)C(=O)N[C@@]1(C)CCCC=CCCC[C@@](C)(C(=O)N[C@@H](C)C(=O)O)NC(=O)[C@H](CCCNC(=N)N)NC(=O)[C@H](CCC(=O)O)NC(=O)[C@H](CCC(N)=O)NC1=O)[C@@H](C)CC [PA-0117, IALILEP(Sar)CS5QERS5A] (H-IALILEP[Sar]C[S5]QER[S5]A-OH; staple 10-14)",binding to PD-1,PD-1,dose-dependent binding
same,binding to CTLA-4,CTLA-4,bound CTLA-4
same,peptide level in plasma over time,[2],detected at early time points at each dose and decreased over time
same,binding to PD-L1,PD-L1,dose-dependent binding
same,reduction of free DNA (marker of NETosis),human neutrophils,did not reduce levels of free DNA; also recorded: did not show a reduction in free DNA
same,decrease in ABO hemolysis compared to reference peptide at 1 h,[1],25%
